Results reported in patent publication US5128376A, “Method for percutaneously administering physiologically active agents using an adjuvant a solvent and a diol moderator” (priority 1990, dated 1992).
Structures can show the parent of a compound that is named as a salt. Where two headings read alike, the source gives them in different places.

Legend:
[1] = in vivo; settings: rhesus monkey, topical or ocular
Protocol: Male rhesus monkeys weighting 10-14 Kg can be used as the subject. An appropriate area of the monkey's chest is shaved 24 hours before drug application.
Drug formulations comprising the PAEC are applied to a certain area of the chest. The monkey is restrained in a chair to prevent it from touching its chest.
Blood samples are taken at appropriate intervals after the application. The heparinized blood is centrifuged, and the plasma removed and stored at -20° C. until analyzed.
This example show in vivo plasma metoclopramide.HCl levels with a topical gel formulation.
200 mg of metoclopramide.HCl was dissolved in 4 ml of 10% C12 OH in a 1:1 volume mixture of MP/1,2-propanediol. To this solution was added 160 mg of Klucel (hydroxypropylcellulose type HF; Hercules Inc.) and the same stirred thoroughly to obtain a uniform gel. 1.0 ml of the gel was applied to 49 cm^2 of the chest area of the rhesus monkey; the applied area was left open to the air during the experiment.
In Examples 7 and 10, the in vivo Rhesus monkey test earlier described was followed except for modifying as described in Example 7.
49 cm^2 of a polyester non-woven cloth (230 mg) impregnated with 1 ml of 25% C12 OH in a 2:1 volume mixture of MP/1,2-propanediol containing 200 mg of Indomethacin was applied to the upper back of a rhesus monkey; the applied area was occluded with Saran® film.
The plasma level of Indomethacine was analyzed by conventional HPLC.
The in vivo procedure of Example 7 was duplicated except for using propranolol as the active agent in place of the NSAID used, e.g., Indomethacin.

[2] = In vitro skin penetration study with rat skin diffusion cell technique (active agent flux, 8 hours); settings: 25 mg in 1 ml
Description: Rat full thickness skins were used in the diffusion cell method of Michaels, AlChE Journal, 21 [5], 985-996, 1975. The rat skin was mounted in the diffusion cell in a vertical position between the upstream and the downstream compartments; the exposed area of the skin approximated 4.15 cm^2.
The skin was excised from the shaved abdominal site of male albino rats weighing 150~300 g, and washed with normal saline solution after the subcutaneous fat was carefully removed with scissors.
The active agent/PAEC solution of known concentration was added to the upper compartment of the cell, which was exposed to the epithelial side of the skin and a normal saline solution was placed in the lower compartment.
The penetration rate was studied in a thermostated bath at 30° C. […]
The flux of the active agent is given in the terms of μg/cm^2 /8 hours. 25 Volume percent component A with respect to component A and component B volume with or without diols and/or triols was used in the composition along with 2.5 weight percent of the active agent. For purposes of comparison, in one instance the result for an adjuvant alone with a diol and/or triol is given.
1,2-propanediol was used as a diol moderator. […]
In the following Examples 6, 8, 9, 11 and 12, in vitro transdermal penetration was again analyzed followed the method of Michaels, AIChE Journal, 21, [5], pp. 985-996 (1975), according to the earlier described procedure. The sample volume was 1 ml unless otherwise indicated and flux of the active agent is given in μg/cm^2 /8 hours. Al percents are volume percents based on the total volume of the system unless otherwise indicated.
25 mg of the NSAID, Indomethacin, Diclofenac sodium or Ibuprofen in 1 ml of various systems were used. […]

SMILES: COc1ccc2c(c1)c(CC(=O)O)c(C)n2C(=O)c1ccc(Cl)cc1 [Indomethacin]
- concentration at 1 h ([1]; in vivo, 1 hour after application, 200 mg in 1 ml 25% C12 OH in 2:1 MP/1,2-propanediol, 49 cm^2 cloth, upper back, occluded, read-out: Indomethacin plasma level): 619 ng/mL
- concentration at 3 h ([1]; in vivo, 3 hours after application, 200 mg in 1 ml 25% C12 OH in 2:1 MP/1,2-propanediol, 49 cm^2 cloth, upper back, occluded, read-out: Indomethacin plasma level): 452 ng/mL
- concentration at 5 h ([1]; in vivo, 5 hours after application, 200 mg in 1 ml 25% C12 OH in 2:1 MP/1,2-propanediol, 49 cm^2 cloth, upper back, occluded, read-out: Indomethacin plasma level): 388 ng/mL
- concentration at 7 h ([1]; in vivo, 7 hours after application, 200 mg in 1 ml 25% C12 OH in 2:1 MP/1,2-propanediol, 49 cm^2 cloth, upper back, occluded, read-out: Indomethacin plasma level): 429 ng/mL
- Relative Flux ([2]; Indomethacin, 25% C12 OH in MP (reference)): 1.0
- Relative Flux ([2]; Indomethacin, 25% C12 OH in a 2:1 volume mixture of MP/1,2-propanediol, relative to 25% C12 OH in MP): 0.73

SMILES: CCN(CC)CCNC(=O)c1cc(Cl)c(N)cc1OC [metoclopramide.HCl]
- concentration at 1 h ([1]; in vivo): 75 ng/mL
- concentration at 2 h ([1]; in vivo): 146 ng/mL
- concentration at 3 h ([1]; in vivo): 178 ng/mL
- concentration at 5 h ([1]; in vivo): 121 ng/mL
- concentration at 7 h ([1]; in vivo): 93 ng/mL

SMILES: CC(C)NCC(O)COc1cccc2ccccc12 (centres unmarked) [propranolol]
- concentration at 1 h ([1]; plasma, 200 mg, 1 hour after application, procedure of Example 7 (25% C12 OH in 2:1 MP/1,2-propanediol, 49 cm^2, upper back, occluded), read-out: Propranolol plasma level): 30 ng/mL
- concentration at 3 h ([1]; plasma, 200 mg, 3 hours after application, procedure of Example 7 (25% C12 OH in 2:1 MP/1,2-propanediol, 49 cm^2, upper back, occluded), read-out: Propranolol plasma level): 115 ng/mL
- concentration at 5 h ([1]; plasma, 200 mg, 5 hours after application, procedure of Example 7 (25% C12 OH in 2:1 MP/1,2-propanediol, 49 cm^2, upper back, occluded), read-out: Propranolol plasma level): 130 ng/mL
- concentration at 7 h ([1]; plasma, 200 mg, 7 hours after application, procedure of Example 7 (25% C12 OH in 2:1 MP/1,2-propanediol, 49 cm^2, upper back, occluded), read-out: Propranolol plasma level): 90 ng/mL

SMILES: CC(C)Cc1ccc(C(C)C(=O)O)cc1 (centres unmarked) [Ibuprofen]
- Relative Flux ([2]; Ibuprofen, 25% C12 OH in N-methyl piperidone (reference)): 1.0
- Relative Flux ([2]; Ibuprofen, 25% C12 OH in a 2:1 volume mixture of N-methyl piperidone/1,2-propanediol, relative to 25% C12 OH in N-methyl piperidone): 0.48
